Source: PMC9897788, “Design, synthesis and cytotoxic evaluation of novel bis-thiazole derivatives as preferential Pim1 kinase inhibitors with in vivo and in silico study” (Journal of Enzyme Inhibition and Medicinal Chemistry, 2023)

Tests used:
Assay in all cases: NCI 60 cell one-dose screening (SRB)
Assay type in all cases: cell-based
A498 = conditions: Homo sapiens; A498, Renal Cancer; single dose 10 µM, 48 h; read-out: Percentage of cellular growth inhibition
Procedure, shortened: (§1)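 Single dose 10 µM, 48 h exposure; RPMI 1640/5% FBS/2 mM Gln, 37 °C. TCA fix (10% adherent, 16% suspension), 0.4% SRB, A515. Value = 100 − growth % relative to untreated control.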

A549/ATCC = conditions: Homo sapiens, Non-Small Cell Lung Cancer, single dose 10 µM, 48 h, read-out: Percentage of cellular growth inhibition
Procedure, shortened: as §1

BT-549 = conditions: Homo sapiens; BT-549, Breast Cancer; single dose 10 µM, 48 h; read-out: Percentage of cellular growth inhibition
Procedure, shortened: as §1

DU-145 = conditions: Homo sapiens; DU-145, Prostate Cancer; single dose 10 µM, 48 h; read-out: Percentage of cellular growth inhibition
Procedure, shortened: as §1

EKVX = conditions: Homo sapiens, Non-Small Cell Lung Cancer, single dose 10 µM, 48 h, read-out: Percentage of cellular growth inhibition
Procedure, shortened: as §1

HCC-2998 = conditions: Homo sapiens; HCC-2998, Colon Cancer; single dose 10 µM, 48 h; read-out: Percentage of cellular growth inhibition
Procedure, shortened: as §1

HCT-15 = conditions: Homo sapiens; HCT-15, Colon Cancer; single dose 10 µM, 48 h; read-out: Percentage of cellular growth inhibition
Procedure, shortened: as §1

HL-60(TB) = conditions: Homo sapiens, Leukemia, single dose 10 µM, 48 h, read-out: Percentage of cellular growth inhibition
Procedure, shortened: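 Inhibition percentages derive from SRB-stained cell mass: growth relative to no-drug wells, computed as (Ti−Tz)/(C−Tz)×100, or (Ti−Tz)/Tz×100 when Ti<Tz, then subtracted from 100. Compound level was 10 µM for 48 h in RPMI 1640 medium with 5% serum.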

HOP-92 = conditions: Homo sapiens, HOP-92, 48 h, HOP-92, Non-Small Cell Lung Cancer, single dose 10 µM, read-out: Percentage of cellular growth inhibition
Procedure, shortened: as §1

HT29 = conditions: Homo sapiens, HT-29; HT29, Colon Cancer; single dose 10 µM, 48 h; read-out: Percentage of cellular growth inhibition
Procedure, shortened: as §1

IGROV1 = conditions: Homo sapiens, IGROV-1; IGROV1, Ovarian Cancer; single dose 10 µM, 48 h; read-out: Percentage of cellular growth inhibition
Procedure, shortened: as §1

MDA-MB-231/ATCC = conditions: Homo sapiens, Breast Cancer, single dose 10 µM, 48 h, read-out: Percentage of cellular growth inhibition
Procedure, shortened: as §1

NCI-H226 = conditions: Homo sapiens; NCI-H226, Non-Small Cell Lung Cancer; single dose 10 µM, 48 h; read-out: Percentage of cellular growth inhibition
Procedure, shortened: as §1

NCI-H460 = conditions: Homo sapiens; NCI-H460, Non-Small Cell Lung Cancer; single dose 10 µM, 48 h; read-out: Percentage of cellular growth inhibition
Procedure, shortened: as §1

NCI-H522 = conditions: Homo sapiens; NCI-H522, Non-Small Cell Lung Cancer; single dose 10 µM, 48 h; read-out: Percentage of cellular growth inhibition
Procedure, shortened: as §1

SF-295 = conditions: Homo sapiens; SF-295, CNS Cancer; single dose 10 µM, 48 h; read-out: Percentage of cellular growth inhibition
Procedure, shortened: as §1

SK-MEL-28 = conditions: Homo sapiens; SK-MEL-28, Melanoma; single dose 10 µM, 48 h; read-out: Percentage of cellular growth inhibition
Procedure, shortened: as §1

SN12C = conditions: Homo sapiens, Renal Cancer, single dose 10 µM, 48 h, read-out: Percentage of cellular growth inhibition
Procedure, shortened: as §1

SW-620 = conditions: Homo sapiens; SW-620, Colon Cancer; single dose 10 µM, 48 h; read-out: Percentage of cellular growth inhibition
Procedure, shortened: as §1

TK-10 = conditions: Homo sapiens; TK-10, Renal Cancer; single dose 10 µM, 48 h; read-out: Percentage of cellular growth inhibition
Procedure, shortened: as §1

U251 = conditions: Homo sapiens, U-251; U251, CNS Cancer; single dose 10 µM, 48 h; read-out: Percentage of cellular growth inhibition
Procedure, shortened: as §1

Row | SMILES | inhibition at 10 µM (A498) [%] | inhibition at 10 µM (A549/ATCC) [%] | inhibition at 10 µM (BT-549) [%] | inhibition at 10 µM (DU-145) [%] | inhibition at 10 µM (EKVX) [%] | inhibition at 10 µM (HCC-2998) [%] | inhibition at 10 µM (HCT-15) [%] | inhibition at 10 µM (HL-60(TB)) [%] | inhibition at 10 µM (HOP-92) [%] | inhibition at 10 µM (HT29) [%] | inhibition at 10 µM (IGROV1) [%] | inhibition at 10 µM (MDA-MB-231/ATCC) [%] | inhibition at 10 µM (NCI-H226) [%] | inhibition at 10 µM (NCI-H460) [%] | inhibition at 10 µM (NCI-H522) [%] | inhibition at 10 µM (SF-295) [%] | inhibition at 10 µM (SK-MEL-28) [%] | inhibition at 10 µM (SN12C) [%] | inhibition at 10 µM (SW-620) [%] | inhibition at 10 µM (TK-10) [%] | further results
1 | c1ccc(/N=c2\scc(-c3ccccc3)n2-c2cccc(-n3c(-c4ccccc4)cs/c3=N\c3ccccc3)c2)cc1 [8a, N,N’-(3,3’-(1,3-phenylene)bis(4-phenylthiazole-3(3H)-yl-2(3H)-ylidene))dianiline] | -18.1 | -4.9 | -31.8 | -3.2 | 5.3 | -22.2 | -4.7 | -4.4 | 14.5 | -3.1 | -6.1 | -4.1 | 17 | -6.3 | 12.2 | -22.4 | -3.6 | 3.9 | -0.4 | -38.8 | inhibition at 10 µM (U251): 2.7%
2 | CCOC(=O)c1sc(Nc2cccc(Nc3nc(C)c(C(=O)OCC)s3)c2)nc1C [3c, Diethyl 2,2’-(1,3-phenylenebis(azanediyl))bis(4-methylthiazole-5-carboxylate)] | 52.7 | 12 | 26.3 | 16.2 | 38.6 | 9.7 | 20.9 | 22.7 | 47.8 | -4.7 | 23.4 | 20.8 | 15 | 23.5 | 26.7 | 33.8 | 15.7 | 11.8 | 11.4 | -0.8 | inhibition at 10 µM (U251): 16.7%
3 | S=C(Nc1ccccc1)Nc1cccc(NC(=S)Nc2ccccc2)c1 [compound 7, 1,1′-(1,3-phenylene)bis(3-phenylthiourea)] | -17.7 | 0.1 | -13.2 | -10.2 | 2.5 | -11.5 | 0.8 | -2.5 | -15.7 | -26.3 | -3.3 | -0.2 | -6.2 | -16.5 | -6.3 | 1.2 | -9.8 | 4.5 | -16.8 | -17.5 | inhibition at 10 µM (U251): -1.4%
4 | c1ccc(-c2csc(Nc3cccc(Nc4nc(-c5ccccc5)cs4)c3)n2)cc1 [6a, N^1,N^3-bis(4-phenylthiazol-2-yl)benzene-1,3-diamine] | 14.5 | 55.8 | 68.3 | 41.1 | 62.3 | 64.5 | 69.5 | 34.1 | 56.3 | 60.6 | 65.9 | 52 | 33.8 | 73.1 | 88.6 | 62.4 | 39.1 | 56.6 | 33.8 | 31.4 | inhibition at 10 µM (U251): 48.8%
5 | CCOc1ccc(/N=N/c2sc(Nc3cccc(Nc4nc(C)c(/N=N/c5ccc(OCC)cc5)s4)c3)nc2C)cc1 [5b, N^1,N^3-bis(5-((4-ethoxyphenyl)diazinyl)-4-methylthiazol-2-yl)benzene-1,3-diamine] | 13.5 | 12.5 | -3.7 | -3.9 | 6.5 | -4.6 | 8.4 | 8.9 | 25.1 | 0.2 | 9.7 | 6.7 | 14.8 | -6.8 | 12.9 | 4.4 | 2.5 | 4.7 | -0.3 | -0.2 | inhibition at 10 µM (U251): 3.3%
